Laboratory results: article PMC8006935, “Study of Combinatorial Drug Synergy of Novel Acridone Derivatives With Temozolomide Using in-silico and in-vitro Methods in the Treatment of Drug-Resistant Glioma” (Frontiers in Oncology, 2021)
Like-named read-outs stand apart in the source and are kept apart here.

Legend:
[1] = test system: U-87 (Uppsala 87) Glioma cell lines; assay: Sulforhodamine B assay, U-87 drug sensitive Glioma cells; format: cell-based; conditions: for IC50: 72 h, SRB, Mean ± Standard Deviations in Table 4, read-out: U-87/WT IC50
Experimental: (§1) In order to test the growth inhibition potential of the TMZ and Acridone derivatives on Glioma, the U-87 (Uppsala 87) Glioma cell lines and T-98 (Temozolomide resistant) Glioma cell lines were treated with Temozolomide (TMZ) and Acridone derivatives AC2, AC7, and AC26. The African Green Monkey Kidney Vero cell lines were used as control for the study. The Vero cell lines were obtained from the National Center for Cell Sciences (NCCS), Pune, while the U-87 and T-98 cell lines were carried in the lab of Dr. GJ Peters, Cancer Center Amsterdam (CCA), VU University Medical Center, Amsterdam, Netherlands. The Mycoplasma testing was done by using the Universal Mycoplasma Detection Kit (ATCC® 30-1012K™) every 6 months. The Vero cell lines have been used as control as they are normal kidney epithelial cells and are non-cancerous in nature. The Vero cell lines have been routinely used for testing cytotoxicity of small molecules by various researchers ([22], [23]). Also, in our previous study, Vero cell lines have been used for testing safety and efficacy of Acridone derivatives for Lung, Cervical, and Breast Cancer studies ([13]).
(§2) Cell viability was found using the Sulforhodamine B (SRB) assay to measure the cellular protein content which provides better sensitivity in comparison to MTT assay ([24]). Moreover, as this method is dependent on the property of the SRB dye, it acts by binding to proteins under slightly acidic conditions and can be exposed to basic conditions for its extraction. The resulting amount of bound dye is then utilized as a proxy for cell mass ([25]). This cell mass can then be extrapolated to measure cell growth.
(§3) Glioma cells were cultured in Gibco (RPMI 1640) complemented with 10% fetal calf serum (Gibco). The cultures were then treated with trypsin-EDTA in order to detach/separate the cells from their culture flasks. The quickly proliferating cells were harvested, counted and plated at suitable concentrations in 96-well microplates. These microplates were subsequently incubated for 24 h. After incubation, drug compounds were dissolved in the culture media and placed in 96 well plates in triplicates, which were again incubated at 37°C under 5% CO2 for 72 h. 72 h later, the plates were removed and the cells were treated with cold Trichloroacetic acid (TCA) to fix the cultures and. 0.4% of SRB dissolved in 1% acetic acid was then added to the culture in order to stain the cells. Next, the bound stain was dissolved in 150 μl of 10 mM unbuffered Tris base left on a gyrator shaker. Thereafter, absorbance of the solution was measured at 540 nm utilizing a microplate reader. Absorbance readings (triplicate values) recorded were used to calculate percentage growth inhibition due to the effect of drugs using the following equations.
(§4) % Cell growth = Absorbance sample/Absorbance of control or untreated × 100
(§5) % Growth inhibition = 100 - % cell growth
(§6) The IC50 was calculated based on the log graph sheet which was developed in-house at the CCA, VU University Medical Center.
(§7) Selectivity Index (SI) is a ratio that measures the window between cytotoxicity and anticancer activity of the drugs ([26]). […] Here, IC50 is the inhibition concentration for inhibiting 50% of cancer cells and CC50 is cytotoxic concentration causing death of 50% viable cells in the host.

[2] = test system: T-98 (Temozolomide resistant) Glioma cell lines; assay: Sulforhodamine B assay, T-98 TMZ resistant Glioma cells; format: cell-based; conditions: for IC50: Glioma cell
Experimental: as §1, §2, §3, §4, §5, §6, §7

[3] = test system: Drug resistant cancer cells (CR), T-98; assay: Mathematical tumor growth model simulation and Bliss synergy, drug resistant cancer cells; conditions: combination TMZ + AC26
[4] = Acute Oral Toxicity - Fixed Dose procedure; format: in vivo
Experimental: Animal study was conducted for acridone derivatives AC2, AC7, and AC26 alone and in combination with Temozolomide for Acute Oral Toxicity - Fixed Dose procedure. The Institutional Animal Ethics Committee bearing CPCSEA/IAEC/P-52/2016 was approved for undertaking the study. Acute oral toxicity was conducted on female albino Wistar rats for 8–12 weeks and were maintained at 25 ± 2 °C in a conditioned room with 50–60% of humidity and free access to food and water was given. Rats were kept for fasting overnight (12 h) before dosing and weights were recorded periodically. Rats in two groups were given acridone derivatives alone at a dose of […], rats in two groups were given a combination of Temozolomide : acridone derivatives at dose of 10:1 mg/kg and 15:1.5 mg/kg body weight and one group was kept as control. Dose of Temozolomide was taken as per previously published article ([50]). Compounds alone and combination were suspended in 2.0% of Tween 80 in normal saline and control group was taken for vehicle only. After administering the compound, food was not provided for 3 h. All the rats were monitored periodically for 1 h upto 12 h on the 1st day and thereafter twice in a day for mortality, behavioral changes, signs and symptoms of toxicity for 14 days. Individual weights of rats were taken for all the 14 days and study was conducted twice for each dose.

[5] = design: method as in PMID 21565270; conditions: cited from earlier work
[6] = earlier studies, no reference given; cited from earlier work
[7] = SI = CC50 of Vero cell line /IC50 of Cancer cell line after 72 h

Compound: CC(=NNC(=O)c1cccc2c(=O)c3ccccc3[nH]c12)c1ccccc1O [AC26, N'(1-(2-hydroxyphenyl)ethylidene)-9-oxo-9,10-dihydroacridine-4-carbohydrazide]
- IC50 ([1]; listed as Acridone 26): 1000 nM
- U-87/WT SI [1, 7]: 73.42
- IC50 ([1]; U87WT): 900 ± 100 nM
- IC50 ([2]; 72 h, SRB, Mean ± Standard Deviations in Table 4, read-out: T-98/TMZRES IC50): 760 ± 53 nM
- IC50 ([2]; drug administered individually, drug resistant cells, read-out: Initial IC50): 760 nM
- T-98/TMZRES SI [2, 7]: 86.94
- Fold change = final IC50/initial IC50 [3]: 0.88
- Body weight (g) Day 0 ([4]; 300 mg/kg oral): 178 ± 10 g
- Body weight (g) Day 1 ([4]; 300 mg/kg oral): 182 ± 8 g
- Body weight (g) Day 2 ([4]; 300 mg/kg oral): 183 ± 12 g
- Body weight (g) Day 3 ([4]; 300 mg/kg oral): 184 ± 16 g
- Body weight (g) Day 4 ([4]; 300 mg/kg oral): 187 ± 10 g
- Body weight (g) Day 5 ([4]; 300 mg/kg oral): 189 ± 16 g
- Body weight (g) Day 6 ([4]; 300 mg/kg oral): 191 ± 12 g
- Body weight (g) Day 7 ([4]; 300 mg/kg oral): 194 ± 18 g
- Body weight (g) Day 8 ([4]; 300 mg/kg oral): 196 ± 12 g
- Body weight (g) Day 9 ([4]; 300 mg/kg oral): 199 ± 10 g
- Body weight (g) Day 10 ([4]; 300 mg/kg oral): 201 ± 14 g
- Body weight (g) Day 11 ([4]; 300 mg/kg oral): 202 ± 16 g
- Body weight (g) Day 12 ([4]; 300 mg/kg oral): 205 ± 12 g
- Body weight (g) Day 13 ([4]; 300 mg/kg oral): 207 ± 8 g
- Body weight (g) Day 14 ([4]; 300 mg/kg oral): 209 ± 18 g
- Body weight (g) Day 0 ([4]; 2000 mg/kg oral): 181 ± 11 g
- Body weight (g) Day 1 ([4]; 2000 mg/kg oral): 182 ± 15 g
- Body weight (g) Day 2 ([4]; 2000 mg/kg oral): 185 ± 10 g
- Body weight (g) Day 3 ([4]; 2000 mg/kg oral): 188 ± 11 g
- Body weight (g) Day 4 ([4]; 2000 mg/kg oral): 189 ± 18 g
- Body weight (g) Day 5 ([4]; 2000 mg/kg oral): 193 ± 22 g
- Body weight (g) Day 6 ([4]; 2000 mg/kg oral): 195 ± 16 g
- Body weight (g) Day 7 ([4]; 2000 mg/kg oral): 199 ± 19 g
- Body weight (g) Day 8 ([4]; 2000 mg/kg oral): 200 ± 14 g
- Body weight (g) Day 9 ([4]; 2000 mg/kg oral): 202 ± 10 g
- Body weight (g) Day 10 ([4]; 2000 mg/kg oral): 206 ± 8 g
- Body weight (g) Day 11 ([4]; 2000 mg/kg oral): 207 ± 9 g
- Body weight (g) Day 12 ([4]; 2000 mg/kg oral): 209 ± 4 g
- Body weight (g) Day 13 ([4]; 2000 mg/kg oral): 211 ± 12 g
- Body weight (g) Day 14 ([4]; 2000 mg/kg oral): 215 ± 20 g
- clinical sign of toxicity ([4]; oral, single dose, 14 days observation, female albino Wistar rats): No clinical sign of toxicity was observed
- cytotoxicity in comparison to the other acridone derivatives [5]: 100 times
- cardiotoxicity, nephrotoxicity and necrosis [6]: no cardiotoxicity, nephrotoxicity and necrosis
- liver histopathology [6]: minimal hyperchromatic, anaplasia, and cellular infiltration
